ChEMBL document CHEMBL3885861, “Open TG-GATES”

Species on record: Rattus norvegicus
Assay: Open TG-GATES - Regimen: Daily Repeat
Assay type: toxicity, organism-based, Sprague-Dawley
Parameters: regimen Daily Repeat, gender Male, age 6 weeks
Settings: in vivo, po, 30 mg/kg, route gavage, dose level Middle; for APTT / Bas / Eos / Fbg / Hb / Ht / Lym / MCH / MCHC / MCV / Mono / Neu / PT / Plat / RBC / Ret / WBC: tissue Blood
[1] = 72 h, tissue Kidney, time 3 day
[2] = 72 h, tissue Plasma, time 3 day

CCCc1cc(=O)[nH]c(=S)[nH]1 [PROPYLTHIOURACIL]
TERMINAL_BW (72 h, time 3 day): 205.6 g | APTT (72 h, time 3 day): 15.9 s | Bas (72 h, time 3 day): 0% | Eos (72 h, time 3 day): 0.4% | Fbg (72 h, time 3 day): 242.4 mg/dL | Hb (72 h, time 3 day): 13.6 g/dL | Ht (72 h, time 3 day): 40.9% | Lym (72 h, time 3 day): 73% | MCH (72 h, time 3 day): 21.9 pg | MCHC (72 h, time 3 day): 33.3% | MCV (72 h, time 3 day): 65.7 fL | Mono (72 h, time 3 day): 7.4% | Neu (72 h, time 3 day): 19.2% | PT (72 h, time 3 day): 12.2 s | Plat (72 h, time 3 day): 114 x10_4/uL | RBC (72 h, time 3 day): 623 x10_4/ul | Ret (72 h, time 3 day): 6.7% | WBC (72 h, time 3 day): 122.6 x10_2/uL | KIDNEY_L [1]: 0.9 g | KIDNEY_R [1]: 0.9 g | KIDNEY_TOTAL [1]: 1.8 g | LIVER (72 h, tissue Liver, time 3 day): 11.4 g | A/G [2]: 1.8 | ALP [2]: 907.2 IU/L | ALT [2]: 36 IU/L | AST [2]: 64 IU/L | BUN [2]: 18.2 mg/dL | CRE [2]: 0.5 mg/dL | Ca [2]: 11.3 mg/dL | Cl [2]: 106 meq/L | DBIL [2]: 0.024 mg/dL | GLC [2]: 192 mg/dL | IP [2]: 7.6 mg/dL | K [2]: 4.6 meq/L | LDH [2]: 150.8 IU/L | Na [2]: 138.4 meq/L | PL [2]: 183 mg/dL | RALB [2]: 3.9 g/dL | TBIL [2]: 0.3 mg/dL | TC [2]: 106.4 mg/dL | TG [2]: 97 mg/dL | TP [2]: 6 g/dL | gamma-GTP [2]: 1.2 IU/L | TERMINAL_BW ([…], time 7 day): 228.6 g | TERMINAL_BW ([…], time 14 day): 248.6 g | TERMINAL_BW ([…], time 28 day): 242.7 g | APTT ([…], time 7 day): 16.2 s | Bas ([…], time 7 day): 0% | Eos ([…], time 7 day): 0.2% | Fbg ([…], time 7 day): 264 mg/dL | Hb ([…], time 7 day): 13.7 g/dL | Ht ([…], time 7 day): 40.3% | Lym ([…], time 7 day): 82.4% | MCH ([…], time 7 day): 21.5 pg | MCHC ([…], time 7 day): 34.1% | MCV ([…], time 7 day): 63.2 fL | Mono ([…], time 7 day): 8.4% | Neu ([…], time 7 day): 9% | PT ([…], time 7 day): 12.9 s | Plat ([…], time 7 day): 122.5 x10_4/uL | RBC ([…], time 7 day): 638 x10_4/ul | Ret ([…], time 7 day): 3.7% | WBC ([…], time 7 day): 123.8 x10_2/uL | APTT ([…], time 14 day): 16.6 s | Bas ([…], time 14 day): 0% | Eos ([…], time 14 day): 0.2% | Fbg ([…], time 14 day): 204.2 mg/dL | Hb ([…], time 14 day): 14.8 g/dL | Ht ([…], time 14 day): 43.8% | Lym ([…], time 14 day): 86.2% | MCH ([…], time 14 day): 21 pg | MCHC ([…], time 14 day): 33.7% | MCV ([…], time 14 day): 62.2 fL | Mono ([…], time 14 day): 3.6% | Neu ([…], time 14 day): 10% | PT ([…], time 14 day): 13.8 s | Plat ([…], time 14 day): 89 x10_4/uL | RBC ([…], time 14 day): 705.4 x10_4/ul | Ret ([…], time 14 day): 1.5% | WBC ([…], time 14 day): 134 x10_2/uL | APTT ([…], time 28 day): 15.1 s | Bas ([…], time 28 day): 0% | Eos ([…], time 28 day): 1% | Fbg ([…], time 28 day): 171 mg/dL | Hb ([…], time 28 day): 15.8 g/dL | Ht ([…], time 28 day): 46.9%
